Data published in publication PMC2642990, “The Glycogen-Binding Domain on the AMPK β Subunit Allows the Kinase to Act as a Glycogen Sensor” (Cell Metabolism, 2009).

Experiments:
[1] = molecular target: T1, recombinant AMPK complex (myc-α1:β1:γ1) (Rattus norvegicus, UniProt P80386); assay: recombinant wild-type AMPK expressed in CCL13 cells, assayed in anti-myc immunoprecipitates; type: biochemical; conditions: 20 mM; Figure 5D
T1 construct: recombinant AMPK complex (myc-α1:β1:γ1) containing full-length (1–270) or truncated β1 subunit lacking the GBD (172–270); made in house; host or cells: human CCL13 cells, co-transfected; isolated by anti-myc immunoprecipitation
T1 sequence (P80386 whole entry, the tested form may be a part): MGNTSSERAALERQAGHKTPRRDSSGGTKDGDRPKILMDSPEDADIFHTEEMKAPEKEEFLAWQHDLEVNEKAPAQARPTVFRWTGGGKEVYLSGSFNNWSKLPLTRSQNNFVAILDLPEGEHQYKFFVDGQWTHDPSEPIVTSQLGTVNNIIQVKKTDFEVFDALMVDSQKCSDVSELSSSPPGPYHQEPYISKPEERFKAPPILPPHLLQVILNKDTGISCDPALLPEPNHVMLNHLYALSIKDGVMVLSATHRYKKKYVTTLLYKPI
T1 sequence (P54645 13-559 partner limits assumed): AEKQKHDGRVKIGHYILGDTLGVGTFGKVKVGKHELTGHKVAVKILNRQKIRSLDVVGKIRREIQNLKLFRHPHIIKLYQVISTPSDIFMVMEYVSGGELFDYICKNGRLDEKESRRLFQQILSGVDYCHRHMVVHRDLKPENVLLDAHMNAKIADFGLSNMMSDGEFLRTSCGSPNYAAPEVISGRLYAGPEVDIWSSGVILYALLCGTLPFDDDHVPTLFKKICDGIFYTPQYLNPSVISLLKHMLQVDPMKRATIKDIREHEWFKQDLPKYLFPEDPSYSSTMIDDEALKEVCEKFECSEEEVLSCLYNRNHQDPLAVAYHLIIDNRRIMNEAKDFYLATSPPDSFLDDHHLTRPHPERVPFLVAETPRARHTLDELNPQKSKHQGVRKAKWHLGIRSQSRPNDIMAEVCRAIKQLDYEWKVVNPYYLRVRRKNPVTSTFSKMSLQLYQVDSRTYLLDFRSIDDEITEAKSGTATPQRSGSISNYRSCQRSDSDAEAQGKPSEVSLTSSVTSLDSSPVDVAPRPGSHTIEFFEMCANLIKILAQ
T1 sequence (P80385 whole entry partner, the tested form may be a part): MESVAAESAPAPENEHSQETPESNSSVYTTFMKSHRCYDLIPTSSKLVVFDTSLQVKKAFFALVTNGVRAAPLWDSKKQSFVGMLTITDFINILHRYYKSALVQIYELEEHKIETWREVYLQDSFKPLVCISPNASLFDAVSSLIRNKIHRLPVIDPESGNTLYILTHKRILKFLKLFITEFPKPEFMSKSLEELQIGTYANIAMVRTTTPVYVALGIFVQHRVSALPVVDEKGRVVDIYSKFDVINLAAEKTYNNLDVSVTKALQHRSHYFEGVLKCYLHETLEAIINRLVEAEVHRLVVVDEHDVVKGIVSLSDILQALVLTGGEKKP
Description: Figure 2 Allosteric Inhibition of AMPK by Different Glycogen Preparations (A) Concentration dependence of inhibition of native rat liver AMPK by preparations of bovine and rat liver glycogen; glycogen concentrations expressed as glucose produced after total hydrolysis. Data were fitted to an IC50 equation (see Supplemental Experimental Procedures), and curves were generated using the estimated best-fit parameters. (B) Concentration dependence of inhibition of native rat liver AMPK by bovine liver glycogen in the presence and absence of 200 μM AMP; curves were generated as in (A). (C) Inhibition by bovine liver glycogen of recombinant AMPK complex (myc-α1:β1:γ1) containing full-length (1–270) or truncated β1 subunit lacking the GBD (172–270). Complexes were expressed in CCL13 cells and purified by immunoprecipitation prior to assay with or without glycogen (200 mM glucose equivalents). Data are means ± SEM (n = 3). ^∗Activity different from control without glycogen by t test (p < 0.05). […] Results are expressed as percentages of the activity in controls without glycogen, and data are mean ± SEM (n = 3). […]

[2] = molecular target: T2, rat AMPK-α1 kinase domain (Rattus norvegicus, UniProt P54645, T183D); assay: kinase assay of bacterially expressed α1 kinase domain; type: biochemical; conditions: bacterially expressed (GST fusion; T172D mutant); data not shown
T2 construct: a bacterially expressed GST fusion of the rat AMPK-α1 kinase domain; GST; made in house; host or cells: bacteria
T2 sequence (P54645 27-279 T183D): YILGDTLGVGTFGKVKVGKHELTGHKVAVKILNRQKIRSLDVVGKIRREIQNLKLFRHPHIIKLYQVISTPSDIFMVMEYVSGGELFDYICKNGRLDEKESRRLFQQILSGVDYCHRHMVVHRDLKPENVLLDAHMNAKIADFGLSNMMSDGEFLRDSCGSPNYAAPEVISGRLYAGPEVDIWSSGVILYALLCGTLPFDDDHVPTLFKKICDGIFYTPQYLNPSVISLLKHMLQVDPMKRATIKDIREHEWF

OC[C@H]1O[C@H](OC[C@H]2OC(O)[C@H](O)[C@@H](O)[C@@H]2O)[C@H](O)[C@@H](O)[C@@H]1O (some centres unmarked) [isomaltose]
inhibition of wild-type recombinant α1β1γ1 [1]: inhibited | inhibition of isolated α1 kinase domain [2]: did not inhibit
